The values below come from patent publication US20190083521A1, “COMBINATION THERAPY FOR TREATING CANCER” (Epizyme, Inc., priority 2014, published 2019).

In one experiment the test system is SKM-1 cells. Kind of experiment: Example 6 combination screen: 300 nM EPZ-5676 pre-treatment, second compound 72 h, ATPLite, IC50 shift. To be noted: SKM-1 cells; 300 nM EPZ-5676 pre-treatment (4 + 3 days) vs DMSO, then 2nd compound 72 h; ATPLite; IC50 shift of 2nd compound. Type of experiment: cell-based, human. How it is done: (§1) Cells were then equilibrated in incubators for 24 hours before treatment with a second compound. Treated assay plates were incubated with a second compound for 72 hours. After this time, plates were developed for endpoint analysis using ATPLite to measure ATP content, which is used as an indicator of cell viability.
(§2) “N/D” means that IC50 of the second compound could not be determined for both conditions.
(In general: In ATP-based viability assays light output follows the ATP content of the culture.)

The next experiment relates to MOLM-13 cells. Described as above. In kind it is cell-based, human. The note with it: 300 nM EPZ-5676 pre-treatment (4 + 3 days) vs DMSO, then 2nd compound 72 h, IC50 shift of 2nd compound. How it is done: as §1, §2
For experiment [1], the system named is OCI-AML-4 (MLL-ENL) cells. Kind of experiment: Example 7 retest: EPZ-5676 pre-treatment, second compound 72 h, Cell Titer Glo, growth inhibition. Type of experiment: cell-based. The note with it: OCI-AML-4 (MLL-ENL). How it is done:
(§3) Cells were then treated with a second compound for 72 hours. After this time, plates were developed for endpoint analysis using Cell Titer Glo to measure ATP content, which is used as an indicator of cell viability.
(§4) “N/D” means the GI100 of the second compound could not be determined for both conditions and “-” means not tested.
(§5) Growth Inhibition (GI) as a measure of cell viability: The cell viability of vehicle was measured at the time of dosing the second agent (T0) and after seventy-two hours (T72). […] A GI 200% represents complete death of all cells in the culture well. Compounds reaching an activity plateau of GI 200% are considered cytotoxic. GI is calculated by applying the following test and equation: […]

A further experiment relates to RS4-11 (MLL-AF4) cells. The experiment is described as above. Type of experiment: cell-based. The note with it: RS4-11 (MLL-AF4), Ras mutation status: None known, second compound, 72 h. On the set-up: GI100: unit not given here. How it is done:
as §3, §4, §5

Another experiment relates to ML-2 (MLL-AF6) cells. Described as above. Type of experiment: cell-based. On the set-up: GI100: unit not given here. The note with it: ML-2 (MLL-AF6), KRAS A146T (het). How it is done:
as §3, §4, §5

The next experiment has as its system MOLM-13 (MLL-AF9) cells. The experiment is described as above. On the set-up: GI100: unit not given here. In kind it is cell-based, human. To be noted: MOLM-13 (MLL-AF9). How it is done: as §3, §4, §5
In another experiment the test system is SKM-1 (non-MLLr) cells. The description is as above. Type of experiment: cell-based, human. More on the design: GI100: unit not given here. To be noted: SKM-1 (non-MLLr). How it is done: as §3, §4, §5
Another experiment has as its system THP-1 (MLL-AF9) cells. The description is as above. In kind it is cell-based. On the set-up: GI100: unit not given here. To be noted: NRAS G12D. How it is done: Cells were split using EPZ-5676 or DMSO containing growth media and further incubated for an additional 3-day pre-treatment time. Cells were finally seeded in growth media containing EPZ-5676 or DMSO in 96-well plates. Cells were then treated with a second compound for 72 hours. After this time, plates were developed for endpoint analysis using Cell Titer Glo to measure ATP content, which is used as an indicator of cell viability.
as §4
Growth Inhibition (GI) as a measure of cell viability: The cell viability of vehicle was measured at the time of dosing the second agent (T0) and after seventy-two hours (T72). A GI reading of 0% represents no growth inhibition—cells treated with test compound as compared to T72 vehicle signals were measured. […] A GI 200% represents complete death of all cells in the culture well. Compounds reaching an activity plateau of GI 200% are considered cytotoxic. GI is calculated by applying the following test and equation: […]

A further experiment concerns MV4-11 (MLL-AF4) cells. In words: Combination proliferation assay with Compound A2 (CellTiter-Glo, Chou-Talalay CI). In kind it is cell-based, human. The note with it: MV4-11 (MLL-AF4); 7 Day Cotreatment Model. How it is done:
The acute myelogenous leukemia cell lines MV4-11 (MLL-AF4) and MOLM-13 (MLL-AF9) were obtained from American Type Culture Collection (ATCC; Rockville, Md.) and Deutsche Sammlung von Mikroorganismen and Zellkulturen (DSMZ; Braunschweig, Germany) respectively.
Studies were performed using MLL-rearranged cell lines in vitro to evaluate the anti-proliferative effect of a combination of two agents together on cell growth. Initial proliferation studies were performed to determine the IC50 of a given compound in each cell line. The cell counts were measured by ATP quantitation using the Promega Cell Titer Glo kit and luminescence values corresponded to the amount of ATP in a given well.
Compounds were evaluated for synergy in the co-treatment phase by testing the compounds in a concentration range which was bracketed around their IC50 values. The compounds were plated to a 96 well plate in a matrix format (FIG. 3) which includes increasing concentrations of each drug in the combination in a constant ratio, in addition to the effect of each compound alone in the study. Cells were seeded and grown in the log-linear phase for 3 or 7 days in the co-treatment phase. Minimum inhibition (DMSO alone) controls were used in each plate to calculate fraction affected (Fa) of a test well. DMSO concentration was kept at 0.1% v/v.
The drug combination analysis was performed utilizing the Chou-Talalay method Synergy was determined using the software package Calcusyn by Biosoft. The combination index (CI) is a quantitative term used to describe the level of synergy or antagonism in a given test system. A combination index less than one indicates synergy, and a CI greater than one indicates antagonism. Further, strong synergism is achieved when the CI value falls below 0.3.
The HP-D300 digital dispenser (Tecan) was used to dispense compounds in a combinatorial matrix. […] Cell viability was measured via ATP content using CellTiter-Glo® (Promega).
Viability was determined using CellTiter-Glo® (Promega).
Proliferation studies were performed using MOLM-13, MV4-11 and SKM-1 cell lines in vitro to evaluate the cancer cell killing effect of a combination of two agents together on cell growth. Initial proliferation studies were performed to determine the IC50 values of a given compound in each cell line. The cell counts were measured by ATP quantitation using the Promega Cell Titer Glo kit and luminescence values correspond to the amount of ATP in a given well.
These studies were performed to evaluate both the combinatorial effect of compounds on cell killing and the durability of the effect by washing out one of the agents.
Compounds evaluated for synergy in the co-treatment phase were tested in a range which was bracketed around the IC50's. The compounds were plated to a 96 well plate in a matrix format which includes increasing concentrations of each drug in the combination in a constant ratio, in addition to the effect of each compound alone in the study. Cells were seeded and grown in the log-linear phase for 3 or 7 days in the cotreatment phase. Maximum and minimum inhibition (DMSO alone) controls were used in each plate to calculate fraction affected (Fa) of a test well. DMSO concentration was kept at 0.1% v/v. The drug combination analysis was performed utilizing the Chou-Talalay method. Synergy was determined using the software package Calcusyn by Biosoft. The combination index (CI) is the term used to describe the level of synergy or antagonism in a given test system. A combination index less than one indicates synergy, and a CI greater than one indicates antagonism.
The drug combination analysis was performed using the Chou-Talalay method. Graphs representing values of combination index (CI) versus Fractional effect (Fa) known as Fa-CI plots were generated and synergy was evaluated. Drug synergy was statistically defined by CI values less than 1, antagonism by CI>1 and additive effect by CI equal to 1.

Where [2] appears, read: 300 nM EPZ-5676 pre-treatment vs DMSO.
Setting [3] is: NRAS Q61R (het), second compound, 72 h.
The mark [4] stands for this setting: KRAS K117N (homo), second compound, 72 h.

In the case of `O=C(/C=C/c1ccc(O)c(O)c1)OCCc1ccccc1` [CAPE], the “Summary of Combination Studies: SKM-1” value in the experiment on SKM-1 cells was “Synergy (considered synergistic if the IC50 value of the second compound decreased by 2-fold or more when EPZ-5676 was added as compared to the DMSO control)”. The “Summary of Combination Studies: MOLM-13” value in the experiment on MOLM-13 cells is on record as “Synergy (considered synergistic if the IC50 value of the second compound decreased by 2-fold or more when EPZ-5676 was added as compared to the DMSO control)”.

In the case of `O=C(c1cn(Cc2cncn2Cc2ccc(Br)cc2)cc1-c1cccc2ccccc12)N1CCOCC1` [LB42708], in the experiment with SKM-1 cells, the “Summary of Combination Studies: SKM-1” value is given as “Synergy (considered synergistic if the IC50 value of the second compound decreased by 2-fold or more when EPZ-5676 was added as compared to the DMSO control)”. Further, the “Summary of Combination Studies: MOLM-13” value in the experiment on MOLM-13 cells is listed as “Synergy (considered synergistic if the IC50 value of the second compound decreased by 2-fold or more when EPZ-5676 was added as compared to the DMSO control)”.

For the compound `Cn1cnc2c(F)c(Nc3ccc(Br)cc3F)c(C(=O)NOCCO)cc21` [Binimetinib (MEK-162), Binimetinib], the “Combination result with EPZ-5676, Retest” value (in [1] (setting [2]); in the experiment on MOLM-13 (MLL-AF9) cells (150 nM EPZ-5676 pre-treatment vs DMSO); with SKM-1 (non-MLLr) cells (setting [2])) was “Synergy (considered synergistic if the GI100 (Growth inhibition 100) value of the second compound decreased by 2-fold or more when EPZ-5676 was added as compared to the DMSO control)” each time. Also, the “Result (combination with EPZ-5676)” value (in experiment [1] (NRAS Q61R (het)); in the experiment on ML-2 (MLL-AF6) cells; in the experiment on MOLM-13 (MLL-AF9) cells (Ras mutation status: None known); in the experiment on SKM-1 (non-MLLr) cells (KRAS K117N (homo))) was “Synergy (considered synergistic if the GI100 (Growth inhibition 100) value of the second compound decreased by 2-fold or more when EPZ-5676 was added as compared to the DMSO control)” in each case. Further, the GI50 (usually the concentration at which growth is held to half of that of the control) in experiment [1] (setting [3]) was 59 nM; in the experiment on RS4-11 (MLL-AF4) cells (Homo sapiens) it was above 10000 nM; in the experiment on ML-2 (MLL-AF6) cells (second compound, 72 h), 30 nM; with MOLM-13 (MLL-AF9) cells (Homo sapiens, Ras mutation status: None known, second compound, 72 h) it was 720 nM; in the experiment on SKM-1 (non-MLLr) cells (setting [4]), 10 nM; in the experiment with THP-1 (MLL-AF9) cells it was 90 nM. Also, the GI100 in [1] (setting [3]) is on record as 1.504; in the experiment with RS4-11 (MLL-AF4) cells, above 10; in the experiment on ML-2 (MLL-AF6) cells (second compound, 72 h) it was 0.50; in the experiment with MOLM-13 (MLL-AF9) cells (Ras mutation status: None known, second compound, 72 h) it was 3.96; with SKM-1 (non-MLLr) cells (setting [4]), 0.07; with THP-1 (MLL-AF9) cells, above 10.

On to `COc1ccc(-c2ccc3c(N4CCOCC4)nc(N4C[C@@H](C)O[C@@H](C)C4)nc3n2)cc1CO` [KU 0063794], for which the “Summary of Combination Studies: SKM-1” value in the experiment on SKM-1 cells was “Synergy (considered synergistic if the IC50 value of the second compound decreased by 2-fold or more when EPZ-5676 was added as compared to the DMSO control)”. Further, the “Summary of Combination Studies: MOLM-13” value with MOLM-13 cells is reported as “Synergy (considered synergistic if the IC50 value of the second compound decreased by 2-fold or more when EPZ-5676 was added as compared to the DMSO control)”.

With `O=C(Nc1ccccc1-c1cn2c(CN3CCNCC3)csc2n1)c1cnc2ccccc2n1` [SRT-1720], the “Summary of Combination Studies: MOLM-13” value in the experiment on MOLM-13 cells is listed as “Synergy (considered synergistic if the IC50 value of the second compound decreased by 2-fold or more when EPZ-5676 was added as compared to the DMSO control)”. For the same compound, the “Combination effect with Compound A2 (Table 4)” value in the experiment on MV4-11 (MLL-AF4) cells is “Synergy (Drug synergy was statistically defined by CI values less than 1)”.

`COc1cc2c(NC3CCN(C4CCCCC4)CC3)nc(N3CCCN(C(C)C)CC3)nc2cc1OCCCN1CCCCC1` [UNC 0646]: the “Summary of Combination Studies: SKM-1” value in the experiment on SKM-1 cells is “Synergy (considered synergistic if the IC50 value of the second compound decreased by 2-fold or more when EPZ-5676 was added as compared to the DMSO control)”. Further, the “Summary of Combination Studies: MOLM-13” value in the experiment with MOLM-13 cells is “Synergy (considered synergistic if the IC50 value of the second compound decreased by 2-fold or more when EPZ-5676 was added as compared to the DMSO control)”.
